Measured values: article PMC6747015, “Structure–function study of a novel inhibitor of the casein kinase 1 family in Arabidopsis thaliana” (Plant Direct, 2019)

Assays:
CKL5 (AT2G19470) = target: T1, CKL5 (AT2G19470) (Arabidopsis thaliana, UniProt Q9ZUP4); assay: AMI‐329 bead binding with AMI‐331 competitor, CKL5
T1 construct: from tissue; host or cells: Arabidopsis seedlings, two weeks old
Procedure: (§1) Screening for proteins bound to AMI‐329 beads was done by a method similar to what has previously been described (Uehara et al., 2019). Briefly, two‐week‐old seedlings grown under LD conditions were harvested at time points ZT2, ZT6, ZT9, and ZT17, and stored at −80°C. Proteins from the frozen plant samples were incubated with 0, 5, or 50 µM of AMI‐331 at 4°C for 30 min with rotary mixing. Two technical replicates were used for each experiment. PBS‐washed AMI‐329 beads were added to the protein samples and gently rotated at 4°C for 1 hr. AMI‐329 bead resins were washed with bead buffer (Uehara et al., 2019) six times. The washed resins were suspended in SDS sample buffer and boiled for 8 min. Protein samples were in‐gel‐digested as previously described (Uehara et al., 2019). Peptides were analyzed with a Q Exactive hybrid quadrupole‐orbitrap mass spectrometer (Thermo Fisher Scientific), as described previously (Uehara et al., 2019). […]
(§2) However, another possible mechanism for the strong AMI‐331 biological activity in vivo is that it targets proteins other than the CK1 family for period lengthening. […] It is noteworthy that kinase AT4G08800 is very similar to the CKL family, but the ATP‐binding pocket of mammalian CK1 as determined by its crystal structure (Shinohara et al., 2017) was absent from AT4G08800, as shown in an Araport 11 model (https://www.araport.org). […]

CKL12 (AT5G57015) = target: T2, CKL12 (AT5G57015) (Arabidopsis thaliana, UniProt Q8VYK9); assay: AMI‐329 bead binding with AMI‐331 competitor, CKL12
T2 construct: from tissue; host or cells: Arabidopsis seedlings, two weeks old
Procedure: as §1, §2

HYD1 (AT1G20050) = target: T3, HYD1 (AT1G20050) (Arabidopsis thaliana, UniProt O48962); assay: AMI‐329 bead binding with AMI‐331 competitor, HYD1
T3 construct: from tissue; host or cells: Arabidopsis seedlings, two weeks old
Procedure: as §1, §2

CKL10 (AT3G23340) = target: T4, CKL10 (AT3G23340) (Arabidopsis thaliana, UniProt Q9LW62); assay: AMI‐329 bead binding with AMI‐331 competitor, CKL10
T4 construct: from tissue; host or cells: Arabidopsis seedlings, two weeks old
Procedure: as §1, §2

Reductase C (AT2G41680) = target: T5, Reductase C (AT2G41680) (Arabidopsis thaliana, UniProt O22229); assay: AMI‐329 bead binding with AMI‐331 competitor, reductase C
T5 construct: Proteins from the frozen plant samples were incubated with 0, 5, or 50 µM of AMI‐331; from tissue; host or cells: two-week-old Arabidopsis seedlings (protein lysate)
Procedure: as §1, §2

CCA1:LUC seedlings = assay: Bioluminescence-based circadian period lengthening in CCA1:LUC seedlings; format: in vivo, Arabidopsis thaliana
Procedure: Bioluminescence‐based circadian rhythms of CCA1:LUC plants treated with small molecules were analyzed by auto‐luminescence detection (Churitsu CL96) as described previously (Uehara et al., 2019). Period length was automatically calculated as previously described (Kamioka et al., 2016).
To estimate CK1 inhibitor activity in vivo, we choose to measure circadian period‐lengthening activity in Arabidopsis seedlings. The assay was made more efficient by monitoring the circadian period using a clock reporter plant line (CCA1:LUC) and an automated luminometer. These tools can be used to measure the circadian period with high confidence, and estimates of in vivo CK1 inhibitor activity are quantitative (Uehara et al., 2019). Four‐day‐old CCA1:LUC seedlings grown under 12‐hr light/12‐hr dark conditions were treated with IC261, PF‐670462, and PHA767491 at different concentrations, and seedling luminescence was monitored under constant light conditions. Dimethyl sulfoxide (DMSO), the solvent used for all of the CK1 inhibitors, was used as a control. IC261 lengthened the circadian period of CCA1:LUC seedlings in a dose‐dependent manner (Figure 1d), with a 2‐hr period lengthening at 500 µM. PF‐670462 and PHA767491 treatment concentrations also correlated with period lengthening (Figure 1e and f). The concentrations required for 2‐hr lengthening effects were 90 µM for PF‐670472 and 47 µM for PHA767491, which was consistent with previous work (Uehara et al., 2019). Thus, PHA767491 was the strongest in vivo CK1 inhibitor among the three inhibitors tested.

CKL4 (AT4G28860) = target: T6, CKL4 (AT4G28860) (Arabidopsis thaliana, UniProt Q8LPI7); assay: AMI‐329 bead binding with AMI‐331 competitor, CKL4
T6 construct: from tissue; host or cells: Arabidopsis seedlings, two weeks old
Procedure: as §1, §2

CKL9 (AT1G03930) = target: T7, CKL9 (AT1G03930) (Arabidopsis thaliana, UniProt Q9ZWB3); assay: AMI‐329 bead binding with AMI‐331 competitor, CKL9
T7 construct: from tissue; host or cells: Arabidopsis seedlings, two weeks old
Procedure: as §1, §2

[1] = CCA1:LUC seedlings, constant light

T7 sequence (Q9ZWB3 whole entry): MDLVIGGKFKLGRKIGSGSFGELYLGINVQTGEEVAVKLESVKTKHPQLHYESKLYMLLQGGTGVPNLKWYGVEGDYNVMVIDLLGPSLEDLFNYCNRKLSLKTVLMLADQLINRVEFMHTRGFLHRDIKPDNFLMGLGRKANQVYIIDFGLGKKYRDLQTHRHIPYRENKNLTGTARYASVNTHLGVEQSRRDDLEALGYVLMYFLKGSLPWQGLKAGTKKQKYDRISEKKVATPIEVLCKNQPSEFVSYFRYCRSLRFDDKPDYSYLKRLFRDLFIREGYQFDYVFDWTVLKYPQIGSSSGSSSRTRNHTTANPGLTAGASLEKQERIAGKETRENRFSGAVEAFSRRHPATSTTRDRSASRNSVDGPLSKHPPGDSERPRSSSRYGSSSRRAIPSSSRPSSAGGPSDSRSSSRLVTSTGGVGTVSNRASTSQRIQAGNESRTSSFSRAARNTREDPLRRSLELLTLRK
T6 sequence (Q8LPI7 whole entry): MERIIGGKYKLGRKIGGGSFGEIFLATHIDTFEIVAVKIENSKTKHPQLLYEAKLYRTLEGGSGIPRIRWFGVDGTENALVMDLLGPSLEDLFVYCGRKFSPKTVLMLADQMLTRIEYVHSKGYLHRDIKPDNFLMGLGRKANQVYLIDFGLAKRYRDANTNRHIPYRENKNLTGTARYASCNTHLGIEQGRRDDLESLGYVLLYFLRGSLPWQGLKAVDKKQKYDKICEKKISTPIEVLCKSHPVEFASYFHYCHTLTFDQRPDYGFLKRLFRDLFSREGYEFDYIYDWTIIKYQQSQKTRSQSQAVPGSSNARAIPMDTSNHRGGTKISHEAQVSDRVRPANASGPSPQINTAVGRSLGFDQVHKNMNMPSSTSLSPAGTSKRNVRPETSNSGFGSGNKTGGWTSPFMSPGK
T4 sequence (Q9LW62 whole entry): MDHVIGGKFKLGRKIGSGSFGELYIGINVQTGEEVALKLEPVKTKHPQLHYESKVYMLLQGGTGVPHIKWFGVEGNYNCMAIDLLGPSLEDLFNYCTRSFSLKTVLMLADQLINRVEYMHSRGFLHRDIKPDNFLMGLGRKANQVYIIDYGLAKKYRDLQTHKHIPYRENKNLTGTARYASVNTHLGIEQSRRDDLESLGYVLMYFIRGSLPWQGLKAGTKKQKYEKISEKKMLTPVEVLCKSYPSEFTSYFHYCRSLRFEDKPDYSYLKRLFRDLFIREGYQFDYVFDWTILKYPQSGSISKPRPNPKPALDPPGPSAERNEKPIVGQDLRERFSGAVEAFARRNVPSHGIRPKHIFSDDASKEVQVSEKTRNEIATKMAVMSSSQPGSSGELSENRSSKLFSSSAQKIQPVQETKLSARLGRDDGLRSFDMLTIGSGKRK
T5 sequence (O22229 68-529): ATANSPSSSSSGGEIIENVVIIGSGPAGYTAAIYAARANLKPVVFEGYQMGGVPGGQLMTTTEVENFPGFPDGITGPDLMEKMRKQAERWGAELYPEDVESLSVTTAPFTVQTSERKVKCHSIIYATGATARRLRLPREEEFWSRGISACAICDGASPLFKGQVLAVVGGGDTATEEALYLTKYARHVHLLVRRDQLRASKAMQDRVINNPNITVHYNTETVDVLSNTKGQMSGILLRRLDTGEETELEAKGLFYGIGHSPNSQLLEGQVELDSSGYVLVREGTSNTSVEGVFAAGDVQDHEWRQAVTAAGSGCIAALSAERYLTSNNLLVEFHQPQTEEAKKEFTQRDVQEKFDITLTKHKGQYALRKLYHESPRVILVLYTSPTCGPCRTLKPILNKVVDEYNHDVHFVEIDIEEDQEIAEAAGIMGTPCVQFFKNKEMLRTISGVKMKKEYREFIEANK
T3 sequence (O48962 whole entry): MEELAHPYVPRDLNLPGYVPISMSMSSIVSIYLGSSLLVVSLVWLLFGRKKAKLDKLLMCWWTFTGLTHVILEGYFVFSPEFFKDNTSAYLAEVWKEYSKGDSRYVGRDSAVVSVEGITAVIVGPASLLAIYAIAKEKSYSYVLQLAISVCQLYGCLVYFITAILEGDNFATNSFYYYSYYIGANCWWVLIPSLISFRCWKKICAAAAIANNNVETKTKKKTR
T1 sequence (Q9ZUP4 whole entry): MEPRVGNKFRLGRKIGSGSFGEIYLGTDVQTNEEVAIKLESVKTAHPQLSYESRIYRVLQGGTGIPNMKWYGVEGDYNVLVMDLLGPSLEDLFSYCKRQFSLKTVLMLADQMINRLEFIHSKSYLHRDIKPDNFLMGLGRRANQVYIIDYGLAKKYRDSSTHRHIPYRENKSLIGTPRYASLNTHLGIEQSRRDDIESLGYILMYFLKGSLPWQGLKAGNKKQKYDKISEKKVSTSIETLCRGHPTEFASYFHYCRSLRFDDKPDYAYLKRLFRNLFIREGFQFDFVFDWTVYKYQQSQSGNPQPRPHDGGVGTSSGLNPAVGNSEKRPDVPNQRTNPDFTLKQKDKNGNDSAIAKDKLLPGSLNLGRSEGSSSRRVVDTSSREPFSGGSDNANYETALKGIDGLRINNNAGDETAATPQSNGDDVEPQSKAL
T2 sequence (Q8VYK9 whole entry): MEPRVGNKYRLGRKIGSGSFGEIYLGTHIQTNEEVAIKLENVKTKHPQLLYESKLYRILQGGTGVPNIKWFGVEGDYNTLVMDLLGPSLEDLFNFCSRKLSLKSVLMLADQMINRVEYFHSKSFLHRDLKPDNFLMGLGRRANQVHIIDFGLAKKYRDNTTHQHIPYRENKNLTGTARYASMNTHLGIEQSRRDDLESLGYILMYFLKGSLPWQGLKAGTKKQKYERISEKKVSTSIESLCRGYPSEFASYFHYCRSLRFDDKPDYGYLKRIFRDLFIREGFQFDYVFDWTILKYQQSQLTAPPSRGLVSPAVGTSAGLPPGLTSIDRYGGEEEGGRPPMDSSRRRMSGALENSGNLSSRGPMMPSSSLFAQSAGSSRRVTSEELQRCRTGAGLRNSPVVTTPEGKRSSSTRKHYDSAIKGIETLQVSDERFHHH

With C#CCn1c2c(c(Br)c1-c1ccncc1)C(=O)NCC2.Cl [AMI‐331] the “Spectra (PSMs) AMI‐329 beads bound” value (CKL5 (AT2G19470); competitor AMI‐331 5 µM) was 1 PSMs, the “Spectra (PSMs) AMI‐329 beads bound” value (CKL5 (AT2G19470); competitor AMI‐331 50 µM) was 0 PSMs and the “Spectra (PSMs) AMI‐329 beads bound” value (CKL12 (AT5G57015); competitor AMI‐331 5 µM) was 2 PSMs. For the same compound, the “Spectra (PSMs) AMI‐329 beads bound” value (CKL12 (AT5G57015); competitor AMI‐331 50 µM) was 0 PSMs, the “Spectra (PSMs) AMI‐329 beads bound” value (HYD1 (AT1G20050); competitor AMI‐331 5 µM) was 0 PSMs and the “Spectra (PSMs) AMI‐329 beads bound” value (HYD1 (AT1G20050); competitor AMI‐331 50 µM) was 0 PSMs. For the same compound, the “Spectra (PSMs) AMI‐329 beads bound” value (CKL10 (AT3G23340); competitor AMI‐331 5 µM) was 1 PSMs, the “Spectra (PSMs) AMI‐329 beads bound” value (CKL10 (AT3G23340); competitor AMI‐331 50 µM) was 0 PSMs and the “Spectra (PSMs) AMI‐329 beads bound” value (Reductase C (AT2G41680); competitor AMI‐331 5 µM) was 0 PSMs. The “Spectra (PSMs) AMI‐329 beads bound” value (Reductase C (AT2G41680); competitor AMI‐331 50 µM) was 0 PSMs, the “Concentration required for 2‐hr period lengthening (2hLC)” value (CCA1:LUC seedlings; [1]) was 0.4 µM and the “Concentration required for 5‐hr period lengthening (5hLC)” value (CCA1:LUC seedlings; [1]) was 1.4 µM. The “Concentration that significantly lengthens the circadian clock period” value (CCA1:LUC seedlings; in vivo) was “below 1 µM”, the “Spectra (PSMs) AMI‐329 beads bound” value (CKL4 (AT4G28860); competitor AMI‐331 5 µM) was 1 PSMs and the “Spectra (PSMs) AMI‐329 beads bound” value (CKL4 (AT4G28860); competitor AMI‐331 50 µM) was 0 PSMs. For the same compound, the “Spectra (PSMs) AMI‐329 beads bound” value (CKL9 (AT1G03930); competitor AMI‐331 5 µM) was 1 PSMs and the “Spectra (PSMs) AMI‐329 beads bound” value (CKL9 (AT1G03930); competitor AMI‐331 50 µM) was 0 PSMs.
